Counter-ions that a name gives are not always drawn.
Biological target: T1, h5-HT5A receptor (Homo sapiens, UniProt P47898)
T1 construct: expressed in transfected cells; host or cells: HEK293
Test: [3H]5-CT binding assay h5-HT5A
Conditions: membranes from HEK293 cells expressing h5-HT5A, 2.5 nM [3H]5-CT; read-out: Binding affinity 5-HT5A (Ki)
Method: 1. [^3H]5-CT binding assay h5-HT5A
Membranes from HEK293-cells, which permanently express the h5-HT5A receptor gene, were incubated in 100 mM Tris-HCl-buffer (pH 7.7), containing 1 mM EDTA in the presence of 2.5 nM [^3H]5-CT (600 μl total volume). The total binding is defined as the binding which is observed when the membranes are incubated alone in the presence of the radioligand. The inhibition induced by the compound is determined by incubation of cell membranes in the presence of the radioligand, and of different concentrations of the compound of interest. Unspecific binding is defined by the binding of [^3H]5-CT, which is obtained by incubation of the membranes as for the total binding but in the presence of 10 μM methiothepine. Following an incubation of 75 minutes at 30° C. the membrane suspension is filtered through GF/B-filters, wrapped in 0.03% PEI, wherein a Skatron® harvest system is used. The radioactivity retained in the filter is quantified by liquid scintillation counting.
In both assays, different concentrations of the test substances are used, and the Ki or the IC50 values are determined.

T1 sequence (P47898 whole entry): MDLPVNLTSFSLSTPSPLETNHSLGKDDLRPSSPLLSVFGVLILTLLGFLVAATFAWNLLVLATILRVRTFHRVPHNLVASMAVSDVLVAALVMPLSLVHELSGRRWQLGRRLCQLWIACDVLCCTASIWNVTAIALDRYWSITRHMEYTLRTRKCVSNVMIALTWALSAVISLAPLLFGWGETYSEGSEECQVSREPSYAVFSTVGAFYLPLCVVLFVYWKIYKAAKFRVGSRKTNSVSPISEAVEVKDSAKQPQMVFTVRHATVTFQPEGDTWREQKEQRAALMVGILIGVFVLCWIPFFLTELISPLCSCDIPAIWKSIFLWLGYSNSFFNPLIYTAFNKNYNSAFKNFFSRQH

SMILES | Ki
COc1cccc(OC)c1CNC(=N)Nc1nnc(-c2ccccc2)s1 [Example 176, N-(2,6-dimethoxybenzyl)-N′-(5-phenyl-1,3,4-thiadiazole-2-yl)guanidine] | 50 to 500 nM
COc1cccc(OC)c1CNC(=N)Nc1nc2c(s1)CN(Cc1ccccc1)CC2 [Example 226, N-(5-benzyl-4,5,6,7-tetrahydro[1,3]thiazolo[5,4-c]pyridine-2-yl)-N′-(2,6-dimethoxybenzyl)guanidine] | < 50 nM
COc1cccc(OC)c1CNC(=N)Nc1nc(-c2ccccc2C(F)(F)F)cs1 [Example 84, N-(2,6-dimethoxybenzyl)-N′-{4-[2-(trifluoromethyl)phenyl]-1,3-thiazole-2-yl}guanidine hydrobromide] | < 50 nM
COc1cccc(OC)c1CNC(=N)Nc1nc(-c2ccnc3c(F)cccc23)cs1 [Example 165, N-(2,6-dimethoxybenzyl)-N′-[4-(8-fluorochinoline-4-yl)-1,3-thiazole-2-yl]guanidine] | < 50 nM
COc1cccc(OC)c1CNC(=N)Nc1nc(-c2ncc(F)cc2F)cs1 [Example 145, N-[4-(3,5-difluoropyridine-2-yl)-1,3-thiazole-2-yl]-N′-(2,6-dimethoxybenzyl)guanidine] | < 50 nM
COc1cccc(OC)c1CNC(=N)Nc1nc(-c2cccnc2)cs1 [Example 50, N-(2,6-dimethoxybenzyl)-N′-(4-pyridine-3-yl-1,3-thiazole-2-yl)guanidine acetate] | < 50 nM
COc1cccc(OC)c1CNC(=N)Nc1nc(CNC(=O)c2ccccc2)cs1 [Example 155, N-[(2-{[[(2,6-dimethoxybenzyl)amino](imino)methyl]amino}-1,3-thiazole-4-yl)methyl]benzamide] | < 50 nM
COc1ccccc1-c1csc(NC(=N)NCc2c(OC)cccc2OC)n1 [Example 75, N-(2,6-dimethoxybenzyl)-N′-[4-(2-methoxyphenyl)-1,3-thiazole-2-yl]guanidine hydrobromide] | < 50 nM
CCOc1ccc2nc(NC(=N)NCc3ccccc3OC)sc2c1 [Example 170, N-(6-ethoxy-1,3-benzothiazole-2-yl)-N′-(2-methoxybenzyl)guanidine fumarate] | 50 to 500 nM
COc1cccc(OC)c1CNC(=N)Nc1nc(-c2ncc(Cl)cc2Cl)cs1 [Example 126, N-[4-(3,5-dichloropyridine-2-yl)-1,3-thiazole-2-yl]-N′-(2,6-dimethoxybenzyl)guanidine] | < 50 nM

Further lines, results first:

Ki | SMILES
50 to 500 nM | N=C(NCCOc1ccccc1Cl)Nc1nccs1 [Example 29, N-[2-(2-chlorophenoxy)ethyl]-N′-1,3-thiazole-2-ylguanidine (2E)-But-2-endioate]
50 to 500 nM | COc1cccc(OC)c1CNC(=N)Nc1nc(-c2ccc(C(C)C)cc2)cs1 [Example 95, N-(2,6-dimethoxybenzyl)-N′-[4-(4-isopropylphenyl)-1,3-thiazole-2-yl]guanidine]
< 50 nM | COc1cccc(OC)c1CNC(=N)Nc1nnc(C)[nH]1 [Example 181, N-(2,6-dimethoxybenzyl)-N′-(5-methyl-4H-1,2,4-triazole-3-yl)guanidine]
50 to 500 nM | CCN(CC)c1ccc(-c2csc(NC(=N)NCc3c(OC)cccc3OC)n2)cc1 [Example 62, N-{4-[4-(diethylamino)phenyl]-1,3-thiazole-2-yl}-N′-(2,6-dimethoxybenzyl)guanidine]
< 50 nM | COc1cccc(OC)c1CNC(=N)Nc1nc(-c2ccc(F)cc2F)cs1 [Example 91, N-[4-(2,4-difluorophenyl)-1,3-thiazole-2-yl]-N′-(2,6-dimethoxybenzyl)guanidine hydrobromide]
< 50 nM | COc1cccc(OC)c1CNC(=N)Nc1nc(-c2ccc(F)cc2OCCN2CCOCC2)cs1 [Example 153, N-(2,6-dimethoxybenzyl)-N′-{4-[4-fluoro-2-(2-morpholine-4-ylethoxy)phenyl]-1,3-thiazole-2-yl}guanidine]
< 50 nM | CCCCS(=O)(=O)NCc1csc(NC(=N)NCc2c(OC)cccc2OC)n1 [Example 157, N-[(2-{[[(2,6-dimethoxybenzyl)amino](imino)methyl]amino}-1,3-thiazole-4-yl)methyl]butane-1-sulfonamide]
